Earlier results in patent US20050238693A1, “Process for the preparation and activation of susbstances and a means of producing same” (priority 2002, published 2005).

Test system: bone loss
Conditions: 400 mg dose twice a day; women relatively soon after menopause

## [Ca] [Calcium]
  bone loss and bone density in spine, femoral neck and radial shaft: avert bone loss and stabilized bone density
